Reference: patent US7217570B2, “Organotypic intestinal culture and methods of use thereof” (The Wistar Institute of Anatomy and Biology, priority 2001, dated 2007)
Entries after “also recorded” stand apart in the source; their conditions may differ. Where no end group is shown, it is not given here.

Assays:
colonic epithelial cells [1] = experiment: Proliferation of organotypic colon cultures in LIF-supplemented base medium (BrdU, 3H-thymidine, cell numbers per area); assay type: cell-based, human
Protocol: Colonic epithelial cells described above were seeded on top of collagen gels containing embedded fibroblasts described above in 0.4 ml of complete growth medium. After seeding onto the matrix of collagen type I with embedded fibroblasts, samples were incubated at 37° C. in 5% CO2 for 60–90 minutes in a low volume of medium (50–100 μl) to enhance attachment. The epithelial cells and clusters attached within 60 minutes. The wells were then filled with complete growth medium. Medium was changed daily for 10 days, then three times per week for an additional 21 days.
Proliferation of organotypic cultures was determined by adding bromodeoxyuridine (BrdU) to the medium according to the manufacturer's instructions (Amersham Pharmacia Biotech, Inc., Piscataway, N.J.). Thymidine incorporation was measured in cells, incubated with 1 μCi ^3H-thymidine/well for 18 hours before harvest and determination of radioactivity.
(§1) Cell numbers were determined per high-power field (0.11×0.18 mm) using 40× magnification as the mean (±SD) of 364 measurements. Constriction of collagen matrices was measured as the length of the longitudinal axis of collagen harvested on days 0.5, 4 and 10 (mean±SD of 32 measurements of 4 samples. Positive cells per area were counted in 12 consecutive fields per cross-section (mean±SD of 16 areas of 2 random cross-sections from 4 samples. Relative number of positive cells per area was expressed as mean±SD of positive/total cells from 16 areas of 2 random cross-sections for each sample. Statistical significance was tested using Student's t-test.

colonic epithelial cells [2] = experiment: Differentiated cells (goblet, enteroendocrine, carbonic anhydrase II) in organotypic colon cultures with LIF; assay type: cell-based, human
Excerpt: The organotypic cultures were characterized as follows. Harvested organotypic cultures were fixed in 1.5% paraformaldehyde and embedded in paraffin. For electron microscopy (EM), cultures were fixed in 4% glutaraldehyde. For histochemistry and immunohistochemistry, 5-μm thick sections were cut from the paraffin beds and stained with hematoxylin and eosin (H&E) or Alcian Blue using standard procedures.
Goblet cells were detected using Alcian Blue and EM. Enteroendocrine cells were identified by chromogranin A staining and EM. Immunohistochemical staining was done with monoclonal antibodies specific for: BrdU (Amersham), Ki67 (DAKO, Carpinteria, Calif.), α-smooth muscle actin (SMA) (Sigma), cytokeratin 19 (CK 19; antibody BA17 [33] kindly provided by Dr. J. Kovarik, Brno, Czech Rep.), chromogranin A (Novocastra, New Castle Upon Tyne, UK) and carbonic anhydrase II (The Binding Site Limited, Birmingham, UK). Immunohistochemistry was performed by standard techniques as described (Dai, C. Y. et al, 2000 Gastroenterology, 119, 929–942). Alkaline phosphatase activity of paraffin-embedded samples was detected using colorimetric substrate (AP Substrate Kit, SK 15100, Vector, Burlingame, Calif.).
as §1

fibroblasts = experiment: Constriction of collagen matrix by embedded fibroblasts and fibroblast numbers; assay type: cell-based, human
Protocol: Human smooth muscle cells HIAS119, kindly provided by Dr. E. Levine, The Wistar Institute, were isolated from large blood vessels and maintained in medium M199, supplemented with 10% FCS, 2 mM L-glutamine, and 50 μg/ml bovine hypothalamus extract (Oda, D. et al, 1998 In Vitro Cell. Dev. Biol. Anim., 34, 46–52). Fibroblasts at 8×10^5/ml were embedded in collagen type I (Organogenesis, Canton, Mass.) to a final concentration of 0.9 to 1.1 mg/ml in DMEM supplemented with 50 μM vitamin C (Sigma), 1.66 mM L-glutamine (GIBCO-BRL), and 1% FCS. The suspension was neutralized, pH 7.2, using 7.5% sodium bicarbonate. Chambered slides, Lab-Tek 8 wells (Nunc International, Rochester, N.Y.), were filled with 0.2 ml of the collagen and cell suspension. […]
as §1

enteric epithelial cells = experiment: Growth factor modulation of organotypic culture in reduced or modified media (Example 2); assay type: cell-based, human; settings: growth factor added individually to base medium (MCDB 201/L15, transferrin, antibiotics)
Protocol: To determine the role of growth factors on proliferation of colonic epithelial cells, this growth medium was modified by changing combinations of growth factors and deleting serum. Keratinocyte growth factor (KGF, R&D Systems) at 20 ng/ml was also tested as part of 23 growth factor combinations. Total relative cell numbers of a specific type were counted as an average of all nuclei counts from a minimum of 3 randomly selected cross-sections of a reconstruct. Goblet cells were counted based on their typical morphology and positive Alcian staining in at least 3 randomly selected slides. Proliferation rates in % were established by counting the number of BrdU or Ki-67-positive nuclei per total epithelial cell nuclei of section. Apoptotic cells were counted in H&E-stained sections (Vagunda, V. et al. 2000 Anal. Quant. Cytol. Histol., 22:307–310). Apoptotic bodies and nuclei were determined according to the size and numbers of the fragments. Apoptosis was calculated as percentage of total nuclei per section (Kerr, J F. et al. 1972 Br. J. Cancer, 26:239–257) To define the role of critical growth factors supporting growth and differentiation of the enteric epithelial cells, an organotypic culture, such as that described in Example 1, was grown in medium in which the number of supplements was reduced. In other experiments, the growth factors, including insulin, EGF, SCF, ET-3, KGF, bFGF, or AMF were added individually to the base medium (MCDB 201/L15 medium with transferrin and antibiotics). In each case, epithelial cell proliferation was not supported in the organotypic culture. In another experiment, the organotypic cultures were prepared by seeding epithelial cells on the artificial stroma in complete medium C or medium L/S/E or medium L. Medium C contained transferrin, insulin, bFGF, EGF, ET-3, HGF, LIF, SCF, AMF, and 1% FCS as supplements. L/S/E medium contained transferrin, insulin, LIF, SCF, ET-3, EGF, and 1% FCS. L medium contained transferrin, insulin, LIF, EGF, and 1% FCS. Sections of the cultures were stained with H&E and Alcian blue after 12 hours (day 0) and 4 days. Values were generated SD of 5 fields from 2 independent experiments. […] The L/S/E-supplemented base medium (LIF, SCF, ET-3, EGF, insulin, and 1% FCS) induced formation by day 4 of highly disorganized structures of stratified and pseudostratified epithelial cells. The epithelium was hyperplastic with morphological atypia. In contrast to results obtained with complete growth medium, only the upper surface rather than the entire artificial stroma was covered with epithelium.

colonic epithelial cells [3] = experiment: Coating of artificial stroma or plastic with extracellular matrix proteins (Example 3); assay type: cell-based, human
Excerpt: Another embodiment of an organotypic culture prepared as described substantially as in Example 2, has an additional component. An extracellular matrix was applied to the organotypic cultures by coating the artificial stroma with matrix proteins Laminin-2 […] (Life Technologies, Rockville, Md.), Laminin-1 […] (Sigma), or Matrigel® gel matrix (Collaborative Research, Bedford, Mass.), which contains Laminin-1 and other matrix proteins, such as collagen IV and […] (Burgeson, R E., et al. 1994 Matrix Biol., 14:209–211 and Page, KC. et al. 1990 J. Biol. Reprod., 43:659–664). Fifty to 100 μl of base medium containing 20 ng/ml of laminins were added onto the surface of the artificial stroma for 60 minutes at 37° C. Matrigel® matrix was diluted 1:5 to 1:10 in base medium before use. After incubation, unbound laminins or Matrigel® matrix were removed by two washings with base medium. The organotypic cultures were incubated at 37° C. in 5% CO2 in growth medium, which was changed daily for 7 days, then three times per week for an additional 21 days. Growth and differentiation of colonic epithelium in growth medium was regulated by ECM components at the interface between the stroma and the epithelial layer. These ECM experiments were done in base medium, supplemented with LIF, SCF, ET3, EGF, insulin, and 1% FCS. […]

[4] = test system: colorectal carcinoma cell line HT29; experiment: Growth of carcinoma cell line on laminin substrates; assay type: cell-based; settings: Laminin-2 compared to Laminin-1
Excerpt: Quantitative analysis of the growth fractions confirmed that the different laminins control growth and differentiation. […] Enteric epithelial cells spread similarly on substrates of Laminins-2 and —I bound to plastic of culture dishes.

## leukemia inhibitory factor [LIF]
Colonic epithelial cells [1]; BM+LIF compared with BM only, after 2 days
  3H-thymidine incorporation: Significant stimulation
Colonic epithelial cells [1]; LIF added to base medium, organotypic culture
  Growth of epithelial cells: significantly stimulated
Colonic epithelial cells [1]; LIF-containing base medium versus base medium
  number of colonic epithelial cells: significantly higher
Colonic epithelial cells [1]; LIF-stimulated cultures
  numbers of BrdU-positive and total epithelial cells: significantly higher
Colonic epithelial cells [2]; LIF only added to base medium
  expression of differentiation marker carbonic anhydrase II: did not express
Colonic epithelial cells [2]; LIF, FIG. 3A
  percentage of goblet cells among total cells and per area: lack of stimulation
Colonic epithelial cells [2]; LIF-cultured, p=0.81 versus control base medium
  relative numbers of goblet cells (of all enterocytes): 3.8±3.5%
Colonic epithelial cells [2]; LIF-stimulated samples, p=0.13 versus samples without LIF
  numbers of goblet cells per area: 2.25±1.66
Colonic epithelial cells [2]; in the presence of LIF
  relative numbers of enteroendocrine cells: significantly decreased; also recorded: decrease
fibroblasts; LIF in base medium
  collagen constriction by fibroblasts: did not change
fibroblasts; LIF-stimulated cultures versus control
  fibroblast numbers: no differences

## basic fibroblast growth factor [bFGF]
Enteric epithelial cells
  epithelial cell proliferation: not supported

## autocrine motility factor [AMF]
Enteric epithelial cells
  epithelial cell proliferation: not supported

## stem cell factor [SCF]
Enteric epithelial cells
  epithelial cell proliferation: not supported

## insulin
Enteric epithelial cells
  epithelial cell proliferation: not supported

## Laminin-2: matrix protein Laminin-2 α2β1γ1 (Life Technologies)
Colonic epithelial cells [3]; coating of artificial stroma, quantitative analysis of growth fractions
  control of growth and differentiation of colonic epithelium: stimulated cell growth
Colonic epithelial cells [3]; laminin bound to plastic of culture dishes
  survival of epithelial cells by day 5: survived only with Laminin-2
[4]
  growth of HT29 cells: better growth

## endothelin-3 (CTCFTYKDKECVYYCHLDIIW; ends and bridges not checked; cysteine pairing not given here; UniProt P14138 97-117, looked up) [ET-3, endothelin-3 (Peninsula Labs)]
Enteric epithelial cells
  epithelial cell proliferation: not supported
